Reference: PMC12379310 (Virology Journal, 2025)

Biological target: human ether-α-go-go related gene (hERG) potassium channel (Kv11.1) (Homo sapiens, UniProt Q12809)
Test: automated whole-cell patch clamp
Type: cell-based

Sequence of human ether-α-go-go related gene (hERG) potassium channel (Kv11.1) (Q12809 whole entry): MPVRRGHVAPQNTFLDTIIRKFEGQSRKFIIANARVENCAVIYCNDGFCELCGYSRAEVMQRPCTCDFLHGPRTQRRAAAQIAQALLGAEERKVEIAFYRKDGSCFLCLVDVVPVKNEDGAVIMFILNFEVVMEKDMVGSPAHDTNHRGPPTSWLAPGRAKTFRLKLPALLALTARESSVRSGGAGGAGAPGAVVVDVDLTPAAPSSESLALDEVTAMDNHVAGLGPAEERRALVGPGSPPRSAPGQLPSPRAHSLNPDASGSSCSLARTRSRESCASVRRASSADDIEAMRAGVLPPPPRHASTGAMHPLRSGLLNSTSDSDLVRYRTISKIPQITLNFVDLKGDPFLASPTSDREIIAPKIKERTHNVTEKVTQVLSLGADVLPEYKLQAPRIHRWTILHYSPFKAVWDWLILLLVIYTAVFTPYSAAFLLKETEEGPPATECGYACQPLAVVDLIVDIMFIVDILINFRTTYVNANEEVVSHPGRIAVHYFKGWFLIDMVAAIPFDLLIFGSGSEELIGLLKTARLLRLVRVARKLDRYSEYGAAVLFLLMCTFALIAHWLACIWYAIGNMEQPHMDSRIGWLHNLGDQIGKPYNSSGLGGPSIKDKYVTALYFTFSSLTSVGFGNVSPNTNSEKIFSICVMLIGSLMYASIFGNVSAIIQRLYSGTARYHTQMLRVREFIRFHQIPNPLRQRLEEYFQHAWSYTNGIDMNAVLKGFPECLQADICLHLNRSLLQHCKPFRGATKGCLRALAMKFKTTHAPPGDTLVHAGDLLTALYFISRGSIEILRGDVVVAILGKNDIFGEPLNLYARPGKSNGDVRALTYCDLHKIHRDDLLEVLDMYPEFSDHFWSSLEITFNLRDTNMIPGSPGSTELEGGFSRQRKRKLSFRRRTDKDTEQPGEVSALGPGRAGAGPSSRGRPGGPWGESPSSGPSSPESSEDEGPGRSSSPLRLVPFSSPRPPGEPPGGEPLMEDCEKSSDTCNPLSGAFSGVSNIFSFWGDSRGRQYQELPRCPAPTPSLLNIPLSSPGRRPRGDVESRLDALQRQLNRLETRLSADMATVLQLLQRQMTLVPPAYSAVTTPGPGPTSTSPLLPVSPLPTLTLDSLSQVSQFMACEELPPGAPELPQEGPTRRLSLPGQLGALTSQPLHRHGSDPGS

SMILES: CCOC(=O)c1c(CSc2ccccc2)n(C)c2cc(Br)c(O)c(CN(C)C)c12 [Arbidol]
- IC50: 303 nM
